Source: US20260315499A1, “2'- {HETEROCYCLYL (ARYL/ALKYL) METHYL} - CANNABIDIOL COMPOUNDS AND PROCESS FOR PREPARATION THEREOF” (COUNCIL OF SCIENTIFIC & INDUSTRIAL RESEARCH, priority 2023, published 2026)
Where “and” joins values, the source holds several entries; their conditions need not be identical. Identical values can stand only once. Like-named read-outs stand apart in the source and are kept apart here.

What was measured:
[1] = Cell viability assay in differentiated neuronal cells (MTT), SHSY5Y; format: cell-based; conditions: human, read-out: % Cell viability ± SD, SHSY5Y
Source text: (§1) In the present disclosure outlined herein, a focused library of cannabidiol analogues were studied for possible neuro-protective potential employing cell line-based stress model systems which mimic the biological stress conditions in vitro (J Cell Biochem., 2018, 119(8), 6482-6491).
(§2) Human neuroblastoma cells (SHSY5Y) and mouse neuroblastoma cells (N2A) were procured from American Type Culture Collection (ATCC). SHSY5Y cell cultures were maintained in DMEM F12 (Invitrogen) whereas N2A were cultured in DMEM (Invitrogen) with 10% Fetal Bovine Serum (Gibco) medium, subjected to differentiation to acquire neuronal morphology (employing differentiation media DMEM-F12, 3-5% FBS, (For differentiation, low concentration of FBS was used) and 50 μM retinoic acid). Differentiated cells were later seeded into 96 well plates, at a density of 1×10^4 before being incubated for 48 hrs with the synthesized library. The exhausted culture media was substituted with new culture media containing 0.5 mg/ml MTT dye. Eventually, the OD at 490 nm excitation was measured using a 96-well plate reader. The proportion of viable cells was determined as percentage of absorbance of untreated cultures relative to control.

[2] = Cell viability assay in differentiated neuronal cells (MTT), N2A; format: cell-based; conditions: mouse, read-out: % Cell viability ± SD, N2A
Source text: as §1, §2

TrkB stable cells SHSY5Y = experiment: Cytoprotective effect in TrkB stable cells SHSY5Y, 96 hrs; format: cell-based, human; conditions: 96 hrs; for viability at 20 µM: Homo sapiens, SH-SY5Y, 96 h, read-out: % Cell viability ± SD
Experimental: In another experiment, the cytoprotective effect of A1 as well as parent molecule B1 was determined in TrkB stable cells SHSY5Y.

Anti BDNF = experiment: Survival pathway protein expression by western blotting in SHSY5Y; format: cell-based, human
Experimental: (§3) Here, A1 was tested to find its role in eliciting survival pathway proteins in differentiated human neuroblastoma cells in concentration and time dependent manner.
(§4) To investigate the effect of A1 on the survival proteins, SHSY5Y cell cultures were treated with different concentrations for 6 hrs and analyzed for the expression of survival proteins, including p-Erk 44/42, p-AKT 473, Anti BDNF, and p TrkB 816 and p TrKB 515 by western blotting.

p TrkB 515 = experiment: as above; format: cell-based, human
Experimental: as §3, §4

p TrkB 816 = experiment: as above; format: cell-based, human
Experimental: as §3, §4

p-Erk 44/42 = experiment: as above; format: cell-based, human; conditions: for Relative Protein Expression p ERK 44/42: 6 hrs
Experimental: as §3, §4

[3] = tested on: nitric oxide (NO) production in RAW264.7 macrophages; experiment: In vitro anti-inflammatory activity: nitric oxide production (Griess) in LPS-exposed RAW264.7 macrophages; format: cell-based, mouse; conditions: Mus musculus, RAW264.7, LPS 24 hrs, read-out: % NO Inhibition ± SD
Experimental: Measurement of Nitric oxide: RAW264.7 macrophages were seeded in 96-well plates with a density of 0.5×10^5 cells/well and incubated overnight at 37° C. in a 5% CO2 atmosphere. The cells were treated with different concentration of CBD and its analogues and exposed to LPS for 24 hrs. For nitric oxide (NO) determination, the cell culture supernatant was taken and mixed with equal volume of Griess reagent in another 96 well plate at room temperature (Biomed Pharmacother., 2017, 92, 175-186). The absorbance was measured at 540 nm. The final calculations were determined on a NaNO2 standard curve.

depression mice model [4] = experiment: In vivo corticosterone induced depression model: sucrose preference test; design: species or system mouse (male C57); conditions: for % Sucrose consumption (ml) ± SD: 2% sucrose, 21 days
Experimental: In vivo efficacy (ameliorates behavioral despair) of A1 in corticosterone induced model of stress (J. Neurochem., 2018 146, 722 734). […] A1 (20 mg/kg, oral) dissolved in normal saline was given for 3 consecutive weeks following corticosteroid stress. The sucrose preference test was employed, tail suspension test, and forced swim test to evaluate behavioral distress. We noticed that A1 can resurrect mice in stressful situations. […]
Sucrose consumption was employed to evaluate anhedonia, a core hallmark of depression in mice. The animals were allowed unfettered access to both identical bottles, one containing water while the other contained a 2% solution of sucrose, for 21 days.
The below equation was later employed to determine water and sugar consumed by mice:
Sucrose Preference=Sucrose consumed[…]/Total fluid intake.

depression mice model [5] = experiment: In vivo corticosterone induced depression model: Tail Suspension Test (TST); design: species or system mouse (male C57); conditions: A1 20 mg/kg, fluoxetine 18 mg/kg
Experimental: A1 (20 mg/kg, oral) dissolved in normal saline was given for 3 consecutive weeks following corticosteroid stress. The sucrose preference test was employed, tail suspension test, and forced swim test to evaluate behavioral distress.
Tail Suspension Test (TST) is a behavioral test employed to assess perturbations expected to influence depression like phenotypes. TST is grounded on the reflection that the extent of immobility is allied with depressing phenotype of mice overturned by antidepressants. Mice were positioned 2 cm from their tail tips and 5 cm above the ground suspending the tails using adhesive tape for the free movement (Acta Neuropathol Commun., 2016, 4(1), 108).
The contemporary immobility was alluded to as interruption in motion, where a blind assessor evaluates the disappointed aspect of display before scoring it.

[6] = tested on: differentiated SHSY5Y cell cultures; experiment: Neuroprotective potential in differentiated SHSY5Y after 96 hrs, concentration series with and without corticosterone; format: cell-based, human
[7] = different concentrations of A1, 6 hrs

## C=C(C)[C@@H]1CCC(C)=C[C@H]1c1c(O)cc(CCCCC)c(CN2CCOCC2)c1O [A1, 2′-(morpholin-1-ylmethyl)-cannabidiol]
[1]
  viability at 48 h, 20 µM: 115.7 ± 0.71%
[2]
  viability at 48 h, 20 µM: 114 ± 2.28%
TrkB stable cells SHSY5Y
  cell viability versus control (in words): increased cell viability versus control
TrkB stable cells SHSY5Y; test compound 20 μM + Cort. 400 μM
  viability at 20 µM: 97.2 ± 1.13%
TrkB stable cells SHSY5Y; test compound alone, 20 μM
  viability at 20 µM: 110 ± 1.61%
Anti BDNF; A1 5 μM, 6 hrs
  Relative Protein Expression Anti BDNF: 0.67
Anti BDNF; A1 10 μM, 6 hrs
  Relative Protein Expression Anti BDNF: 1.48
Anti BDNF; A1 + Cort., 6 hr
  Relative Protein Expression Anti BDNF: 39.43
Anti BDNF; A1/Cort., A1 5 μM, 6 hrs
  Relative Protein Expression Anti BDNF: 0.44
Anti BDNF; A1/Cort., A1 10 μM, 6 hrs
  Relative Protein Expression Anti BDNF: 1.34
Anti BDNF; [7]
  expression of Anti BDNF (in words): increased significantly
P TrkB 515; A1 10 μM, 6 hrs
  Relative Protein Expression p TrkB 515: 1.75
P TrkB 515; A1 + Cort., 6 hr
  Relative Protein Expression p TrkB 515: 6.675
P TrkB 515; A1/Cort., A1 5 μM, 6 hrs
  Relative Protein Expression p TrkB 515: 0.07
P TrkB 515; A1/Cort., A1 10 μM, 6 hrs
  Relative Protein Expression p TrkB 515: 1.30
P TrkB 515; [7]
  expression of p TrkB 515 (in words): increased significantly except for the expression of p-AKT 473 and p TrkB 515
P TrkB 816; A1 5 μM, 6 hrs
  Relative Protein Expression p TrkB 816: 3.11
P TrkB 816; A1 10 μM, 6 hrs
  Relative Protein Expression p TrkB 816: 2.91
P TrkB 816; A1 + Cort., 6 hr
  Relative Protein Expression p TrkB 816: 23.0422
P TrkB 816; A1/Cort., A1 5 μM, 6 hrs
  Relative Protein Expression p TrkB 816: 1.41
P TrkB 816; A1/Cort., A1 10 μM, 6 hrs
  Relative Protein Expression p TrkB 816: 2.89
P TrkB 816; [7]
  expression of p TrkB 816 (in words): increased significantly
p-Erk 44/42; A1 5 μM
  Relative Protein Expression p ERK 44/42: 4.51
p-Erk 44/42; A1 10 μM
  Relative Protein Expression p ERK 44/42: 8.80
p-Erk 44/42; A1/Cort., A1 5 μM
  Relative Protein Expression p ERK 44/42: 3.70
p-Erk 44/42; A1/Cort., A1 10 μM
  Relative Protein Expression p ERK 44/42: 5.05
p-Erk 44/42; [7]
  expression of p-Erk 44/42 (in words): increased significantly
[3]; 5 μM
  inhibition at 5 µM: 7.1 ± 0.8%
[3]; 10 μM
  inhibition at 10 µM: 12.3%
Depression mice model [4]; compared with stressed mice
  increase of sucrose consumption: more than 50%
Depression mice model [4]; with Cort.
  % Sucrose consumption (ml) ± SD: 78.02±0.99%
Depression mice model [4]; without Cort.
  % Sucrose consumption (ml) ± SD: 83.80±0.80%
Depression mice model [5]; with Cort. 35 μg/ml
  % Immobility (sec) ± SD (dead time): 33.05 ± 5.62 s
  % Latency to immobility (sec) ± SD: 36.90 ± 14.54 s
Depression mice model [5]; without Cort.
  % Immobility (sec) ± SD (dead time): 28.76 ± 9.01 s and 28.76 ± 9.10 s
  % Latency to immobility (sec) ± SD: 54.35 ± 9.74 s
[6]; A1 alone 1.25, 2.5, 5, 10, 20 and 40 μM
  cell viability compared to positive control DHF (in words): no significant variation in cell viability when compared to positive control DHF
[6]; Homo sapiens, SH-SY5Y, 96 h, A1 1.25 μM, without Cort
  viability at 1.25 µM: 102%
[6]; Homo sapiens, SH-SY5Y, 96 h, A1 2.5 μM, without Cort
  viability at 2.5 µM: 108%
[6]; Homo sapiens, SH-SY5Y, 96 h, A1 5 μM + Cort 400 μM, 96 hrs
  viability at 5 µM: 103%
[6]; Homo sapiens, SH-SY5Y, 96 h, A1 5 μM, without Cort
  viability at 5 µM: 108%
[6]; Homo sapiens, SH-SY5Y, 96 h, A1 10 μM, without Cort
  viability at 10 µM: 117%
[6]; Homo sapiens, SH-SY5Y, 96 h, A1 20 μM, without Cort
  viability at 20 µM: 115%
[6]; Homo sapiens, SH-SY5Y, 96 h, A1 40 μM, without Cort
  viability at 40 µM: 115%
[6]; concentrations as high as 40 μM, up to 96 hrs, with and without corticosterone
  toxicity (in words): non-toxic even at concentrations as high as 40 μM
